Reference: US11357745B2, “Methods and materials for treating cytokine release syndrome” (Mayo Foundation for Medical Education and Research, priority 2018, dated 2022)

Columns and labels:
RPMI [1] = test: MTT assay, metformin in RPMI myeloma cells; assay type: cell-based; details: Homo sapiens, 72 hours, Compusyn, read-out: metformin required to achieve 50% cell death/growth inhibition (IC50)
Protocol: (§1) Data is presented as heat map intensity corresponding to the level of expression. (B) HMCLs were treated with different doses of metformin for 72 hours and relative proliferation compared to vehicle control was calculated using MTT assay. Data is presented as IC50 for different cell lines and IC50 was calculated using Compusyn software (n=6). (C) & (D) HMCLs MM1S, RPMI, and U266 were treated with vehicle control (DMSO) or metformin 10 mM for 72 hours. (C) For apoptosis assay, cells were suspended in Annexin V buffer and stained with Annexin V for 30 minutes. Propidium iodide was added 10 minutes prior to data acquisition by flow cytometry. (D) For cell cycle assay, BrdU was added and incubated for 4 hours. Cells were fixed, permeabilized and stained with Anti-BrdU antibody for 30 minutes. 7AAD was added 10 minutes to samples before data acquisition by flow cytometry. The data were acquired on BD Fortessa and analyzed with flowjo V10.
(§2) IC50 was calculated using Compusyn software.

KMS12PE = test: MTT assay, metformin in KMS12PE myeloma cells; assay type: cell-based; details: Homo sapiens, KMS-12-PE, 72 hours, Compusyn, read-out: metformin required to achieve 50% cell death/growth inhibition (IC50)
Protocol: as §1, §2

JJN3 = test: MTT assay, metformin in JJN3 myeloma cells; assay type: cell-based; details: Homo sapiens, JJN-3, JJN3, 72 hours, Compusyn, read-out: metformin required for 50% cell death/growth inhibition (IC50)
Protocol: as §1, §2

ALMC1 and ALMC2 = test: MTT assay in primary amyloidosis (AL) cell lines; assay type: cell-based; details: ALMC2 high, ALMC1 low IL-6Rα expresser
Protocol: (3-(4,5-Dimethylthiazol-2-5-Diphenyltetrazolium Bromide (MTT) (Thermo Fisher Scientific, MA, USA) was dissolved in PBS to make 12 mM stock solution. Cells were seeded at 10,000 cells in 50 μl complete medium. Drugs, cytokines and antibodies were added at indicated doses in 50 μl complete medium. Cells were incubated for 72 hours for HMCLs and 48 hours for primary myeloma cells in presence of vehicle control, or metformin (1 mM, 5 mM, 10 mM, 20 mM, 40 mM, and 80 mM). MTT (10 μl) was added to each well and incubated for an additional 2 hours. Lysis buffer (100 μl) was added to each well and absorbance was read at 570 nm.

[2] = test system: human myeloma cell lines (HMCLs); test: MTT assay across 10 human myeloma cell lines, compared with receptor surface expression by flow cytometry; assay type: cell-based
Description: Surface expression of IL-6Rα, IL-6ST and CD44 was quantified using IL-6Rα-PE (clone UV4, Biolegend), IL-6ST-APC (2E1B02, Biolegend) and CD44-BV711 (IM7, Biolegend), and compared to isotype or unstained control.

RPMI [3] = test: Annexin V / propidium iodide apoptosis assay, RPMI; assay type: cell-based, human; details: metformin 10 mM, 72 hours, Annexin V/PI
Protocol: as §1, with “Cells were fixed, permeabilized and stained with Anti-BrdU antibody for 30 minutes. 7AAD was added 10 minutes to samples before data acquisition by flow cytometry.” left out
(§3) Cell surface expression of IL-6Rα, IL-6ST, and CD44 was quantified using the fluorescently labeled antibodies anti-IL6R-PE (UV4, Biolegend), anti-IL6ST-APC (2E1B02, Biolegend) and anti-CD44-BV711 (IM7, Biolegend), and compared with isotype control. BrdU labeling assay (Phase-Flow™, Biolegend) was performed according to the manufacturer's protocol to quantify cell cycle. […] For apoptosis assay, the cells were treated with metformin for 72 hours and quantified with Annexin V (Biolegend). […] The data were analyzed using flowJo vs10.4.2 (Flowjo LLC, USA). […]

U266 [4] = test: Annexin V / propidium iodide apoptosis assay, U266; assay type: cell-based, human; details: U266, metformin 10 mM, 72 hours, Annexin V/PI
Protocol: as §1, with “Cells were fixed, permeabilized and stained with Anti-BrdU antibody for 30 minutes. 7AAD was added 10 minutes to samples before data acquisition by flow cytometry.” left out
as §3

MM1S [5] = test: Annexin V / propidium iodide apoptosis assay, MM1S; assay type: cell-based, human; details: metformin 10 mM, 72 hours, Annexin V/PI
Protocol: as §1, with “Cells were fixed, permeabilized and stained with Anti-BrdU antibody for 30 minutes. 7AAD was added 10 minutes to samples before data acquisition by flow cytometry.” left out
as §3

RPMI [6] = test: BrdU cell cycle assay, RPMI; assay type: cell-based, human; details: metformin 10 mM, 72 hours, from 53% without metformin
Protocol: as §1, with “Cells were fixed, permeabilized and stained with Anti-BrdU antibody for 30 minutes. 7AAD was added 10 minutes to samples before data acquisition by flow cytometry.” left out
as §3

U266 [7] = test: BrdU cell cycle assay, U266; assay type: cell-based, human; details: U266, metformin 10 mM, 72 hours, from 35% without metformin
Protocol: as §1, with “Cells were fixed, permeabilized and stained with Anti-BrdU antibody for 30 minutes. 7AAD was added 10 minutes to samples before data acquisition by flow cytometry.” left out
as §3

MM1S [8] = test: BrdU cell cycle assay, MM1S; assay type: cell-based, human; details: metformin 10 mM, 72 hours, from 34% without metformin
Protocol: as §1, with “Cells were fixed, permeabilized and stained with Anti-BrdU antibody for 30 minutes. 7AAD was added 10 minutes to samples before data acquisition by flow cytometry.” left out
as §3

RPMI IL-6Rα knock-downs = test: MTT assay in RPMI IL-6Rα knock-down cells; assay type: cell-based, human; details: n=6
Protocol: as §2
pGFP-C-shLenti vectors (4 shRNA targeting IL-6Rα and 1 scramble control) were purchased from Origene. Lentiviral particles were generated in HEK293T cells using pMD2.G (Addgene) and psPAX2 (Addgene). HMCLs were transduced with lentiviral vector particles in the presence of Polybrene (Millipore). Stable cell lines were generated after selecting for GFP positive cells with flow sorting and treatment with puromycin. Decreased expression of IL-6Rα compared to scrambled control was confirmed with qPCR and flow cytometer.

[9] = test system: JJN3 engineered to over-express IL-6Rα; test: MTT assay in JJN3 cells over-expressing IL-6Rα; assay type: cell-based, human; details: n=6
Protocol: Ten different HMCLs were treated with metformin (0, 1 mM, 5 mM, 10 mM, 20 mM, 40 mM, and 80 mM) for 72 hours. The total numbers of live cells (metabolically active) were estimated using MTT assay. Relative proliferation was calculated by normalizing absorbance value with that obtained for vehicle control. IC50 was calculated using Compusyn software. […] (D) JJN3 IL-6Rα over-expressing cells were created using IL-6R cDNA expressing vector. Increased expression of IL-6Rα was confirmed by flow cytometry. (E) The sensitivity to metformin (IC50) was calculated using the MTT assay for cells transduced with the shRNA scrambled control or IL-6Rα KDs (n=6). […] (F) Metformin IC50 was calculated using MTT assay for JJN3 control and IL-6Rα over-expresser (n=6).
(3-(4,5-Dimethylthiazol-2-5-Diphenyltetrazolium Bromide (MTT) (ThermoFisher Scientific, MA, USA) was dissolved in PBS to make 12 mM stock solution. Cells were seeded at 10,000 cells in 50 μL complete medium. Drugs, cytokines and antibodies were added at indicated doses in 50 μL complete medium. HMCLs were incubated for 72 hours while primary myeloma cells were incubated for 48 hours in presence of vehicle control, metformin (1 mM, 5 mM, 10 mM, 20 mM, 40 mM and 80 mM). MTT (10 μL) was added to each well and incubated for an additional 2 hours. Lysis buffer (100 μL) was added to each well and absorbance was read at 570 nm. […]

IL-6Rα [10] = test: Flow cytometry, cell surface IL-6Rα in HMCLs; assay type: cell-based, human; details: RPMI, ANBL6, U266, MM1S, JJN3; metformin 10 mM, 72 hours
Protocol: (§4) RPMI, ANBL6, U266, MM1S, and JJN3 were treated with metformin 10 mM for 72 hours and median fluorescence intensity for cell surface expression of (A) IL-6Rα, (B) IL-6-Rβ and (C) CD44 was quantified using flow cytometry. Vehicle (open bar) and metformin 10 mM (shaded bar), n=3. (D) RPMI and ANBL6 cells were cultured either in the presence of vehicle control or metformin 10 mM for 72 hours. Soluble IL-6Rα was quantified in media supernatant using ELISA kit. Vehicle (open bar) and metformin 10 mM (shaded bar), n=6. […] (E) RPMI and ANBL6 cells were cultured either in presence of vehicle control or metformin 10 mM for 72 hours. mRNA expression of IL-6Rα was quantified using qPCR TaqMan assay. Vehicle (open bar) and metformin 10 mM (shaded bar), n=6.
(§5) Surface expression of IL-6Rα, IL-6ST and CD44 was quantified using IL-6Rα-PE (clone UV4, Biolegend), IL-6ST-APC (2E1B02, Biolegend) and CD44-BV711 (IM7, Biolegend), and compared to isotype or unstained control. BrdU labelling assay (Phase-Flow™, Biolegend) was performed according to the manufacturer's protocol to quantify cell cycle fractions. After treatment cells were labelled with BrdU for 2 hours. For apoptosis assay, cells were treated with metformin for 72 hours and quantified with Annexin V (Biolegend). All assays were quantified on LSR Fortessa.

CD44 = test: Flow cytometry, cell surface CD44 in HMCLs; assay type: cell-based, human; details: RPMI, ANBL6, U266, MM1S, JJN3; metformin 10 mM, 72 hours
Protocol: as §4, §5

soluble IL-6Rα = details: RPMI and ANBL6, metformin 10 mM, 72 hours, ELISA
Protocol: as §4

IL-6Rα mRNA = test: IL-6Rα mRNA, qPCR TaqMan assay; assay type: cell-based, human; details: RPMI and ANBL6, metformin 10 mM, 72 hours
Protocol: as §4

IL-6Rα [11] = test: Flow cytometry, cell surface IL-6Rα on primary myeloma cells; assay type: cell-based, human; details: metformin 10 mM, 48 hours, n=11
Protocol: as §5

IL-6Rα [12] = test: Flow cytometry, IL-6Rα on Hep3B hepatocytes; assay type: cell-based, human; details: metformin 10 mM, 72 hours
Protocol: Human hepatocellular carcinoma cell line Hep3B was purchased from ATCC. Cells were maintained in DMEM supplemented with 10% FBS and 100 U/mL penicillin and 100 μg/mL streptomycin.
as §5, with “Fortessa. Data were analyzed using flowJo vs10.4.2 (Flowjo LLC, USA).” for “Fortessa.”

[13] = test system: IL-6 induced CRP production from hepatocytes (Hep3B); details: metformin 10 mM pre-treatment 72 hours, IL-6 50 ng/ml, 48 hours
primary myeloma cells = test: MTT assay in primary myeloma cells (CD138+ enriched); details: metformin 10 mM, 48 hours
Protocol: (A) Bone marrow aspirates were enriched for multiple myeloma cells by with magnetic associated cell sorting using CD138^+ (a marker for myeloma cells). Cells were treated with metformin 10 mM or vehicle control. After 48 hours of culture, the MTT assay was performed to determine the percentage of live cells. Data is presented as relative proliferation compared to vehicle control (n=6 per sample).
CD138^+ cells from bone marrow aspirates were enriched using magnetic associated cell sorting at the Hematology Research Core (Mayo Clinic Rochester, USA). Primary myeloma cells were maintained in RPMI supplemented with 10% FBS, antibiotics and 1 ng/mL IL-6.
(3-(4,5-Dimethylthiazol-2-5-Diphenyltetrazolium Bromide (MTT) (ThermoFisher Scientific, MA, USA) was dissolved in PBS to make 12 mM stock solution. Cells were seeded at 10,000 cells in 50 μL complete medium. Drugs, cytokines and antibodies were added at indicated doses in 50 μL complete medium. HMCLs were incubated for 72 hours while primary myeloma cells were incubated for 48 hours in presence of vehicle control, metformin (1 mM, 5 mM, 10 mM, 20 mM, 40 mM and 80 mM). MTT (10 μL) was added to each well and incubated for an additional 2 hours. Lysis buffer (100 μL) was added to each well and absorbance was read at 570 nm. […] IC50 was calculated using Compusyn software.

SMILES: CN(C)C(=N)N=C(N)N [metformin]
- IC50 (RPMI [1]): < 10 mM
- IC50 (KMS12PE): < 10 mM
- IC50 (JJN3): > 30 mM
- Metformin IC50, ALMC2 compared to ALMC1 (ALMC1 and ALMC2): lower for ALMC2 compared to ALMC1
- survival/growth of multiple myeloma cells ([2]; 72 hours, MTT, variable levels of efficacy): inhibited survival/growth
- percentage of live cells after metformin treatment (RPMI [3]): 59%
- percentage of live cells after metformin treatment (U266 [4]): 67%
- percentage of live cells after metformin treatment (MM1S [5]): 76%
- S phase fraction after metformin treatment (RPMI [6]): 29%
- S phase fraction after metformin treatment (U266 [7]): 20%
- S phase fraction after metformin treatment (MM1S [8]): 23%
- IC50 for metformin in RPMI IL-6Rα knock-downs compared to scramble control (RPMI IL-6Rα knock-downs): significantly increased
- IC50 for metformin in JJN3 over-expressing IL-6Rα compared to wild type JJN3 [9]: significantly decreased
- cell surface expression of IL-6Rα (IL-6Rα [10]): significantly and consistently reduced
- CD44 expression (CD44): no significant change
- soluble IL-6Rα in media (soluble IL-6Rα): decrease
- IL-6Rα mRNA level (transcription) (IL-6Rα mRNA): decreased the level of IL-6Rα transcription
- cell surface expression of IL-6Rα on primary myeloma cells (IL-6Rα [11]): decreased cell surface expression of IL-6Rα
- IL-6Rα expression on hepatocytes (IL-6Rα [12]): expression of the receptor decreased
- IL-6 induced CRP production from hepatocytes [13]: significantly inhibited
- survival/proliferation of primary myeloma cells (primary myeloma cells): decreased survival/proliferation

SMILES: [H]/N=C(/N)N/C(=N/[H])NCCc1ccccc1 [Phenformin]
- Phenformin IC50 versus IL-6Rα expression ([2]; MTT IC50 vs flow cytometry): strongly negatively correlated
